Read-outs that look alike come from different tables or passages of the source.
Tests used:
[1] = tested on: rabbit lower extremity ischemia model; experiment: Intramuscular administration to rabbit lower extremity ischemia model, angiography; assay type: in vivo, rabbits; conditions: 10^−8 M LE135 solution injected into femoral muscles, 3 times per week; 28th day from the ligature; compared with control group (FIG. 2)
Experimental: The external iliac arteries on one side of rabbits were ligated and separated, and a 10^−8 M LE135 solution was injected into the femoral muscles on the same side to examine the neovascularization effect of the medicament. A solution of an organic solvent alone in the same amount as used for dissolution of LE135 was used as a negative control. The solutions were administered 3 times per week from the next day of the ligature. […] The blood vessels surrounded by the broken lines are considered to be collateral blood routes. In the figure, the white arrows* indicate the common iliac arteries.

[2] = tested on: mouse lower extremity ischemia model; experiment: Neovascularization experiment using mouse lower extremity ischemia model; assay type: in vivo, mice (C3H/HeNCrj)
Experimental: The femoral arteries on one side of 24 to 36-week old wild-type male mice (C3H/HeNCrj) were ligated and separated to prepare lower extremity ischemia model mice. […] The blood flow ratio between the affected extremities and the normal extremities was determined by the laser Doppler method on the day before the operation and 1, 3, 4, 5, 7, 9, 12, 14, 16, 18, 21, 24 and 28 days after the operation. […] In order to detect vascular endothelial cells in muscle tissues of the affected extremities on 21st day after the operation, immunostaining was performed by using anti-CD31 (PECAM1) antibodies.

[3] = tested on: human umbilical vein endothelial cells and human skin fibroblasts; experiment: Neovascularization in co-culture system of human umbilical vein endothelial cells and human skin fibroblasts (Neovascularization Kit), anti-CD31 immunostaining; assay type: cell-based
Experimental: The effect of LE135 on neovascularization was investigated by using a co-culture system of human umbilical vein endothelial cells and human skin fibroblasts (Neovascularization Kit, Kurabo Industries Ltd.). The vascular endothelial growth factor (VEGF) having a potent neovascularization action, added to 8 wells at a final concentration of 10 ng/ml, was used as positive control. Culture medium alone added to 8 wells without addition of the medicament was used as negative control. LE135 was added to the wells (8 wells for each group) at various concentrations, and culture was performed for 11 days. Immunostaining was performed by using anti-CD31 (PECAM1) antibodies directed to the vascular endothelial cells to determine the areas of luminal structures similar to blood vessels showing positive results and the numbers of branchings as an index of maturity of the formed luminal structures. The luminal structure areas and the numbers of branchings observed in the wells added with the medicament (LE135 or VEGF as the positive control) at various concentrations are shown in Table 1 in terms of relative values based on the luminal structure area and the number of branchings observed in the medicament-free wells as the negative control, which were taken as 100, respectively.
The effects of RAR antagonists other than LE135 on neovascularization were examined by using a co-culture system of human umbilical vein endothelial cells and human skin fibroblasts (Neovascularization Kit, Kurabo Industries Ltd.). The vascular endothelial growth factor (VEGF) having a potent neovascularization action added to wells at a final concentration of […] was used as positive control. Culture medium alone added to wells without addition of the medicament was used as negative control. Each compound was added at a concentration of 10^−9 mol/L, and culture was performed for 11 days. Immunostaining was performed by using anti-CD31 (PECAM1) antibodies directed to vascular endothelial cells to determine the areas of luminal structures similar to blood vessels showing positive results and the numbers of branchings as an index of maturity of the formed luminal structures. The luminal structure areas and the numbers of branchings observed in the wells added with the medicament at each given concentration are shown in the following table in terms of relative values based on the luminal structure area and the number of branchings observed in the medicament-free wells as the negative control, which were taken as 100, respectively.

[4] = Example 4: each compound 10^−9 mol/L, culture 11 days, relative value, negative control taken as 100, mean ± SD (Table 3)
[5] = LE135 10^−9 M, culture 11 days, relative value, negative control taken as 100, mean ± SD (Table 1)
[6] = LE135 10^−10 M, culture 11 days, relative value, negative control taken as 100, mean ± SD
[7] = LE135 10^−11 M, culture 11 days, relative value, negative control taken as 100, mean ± SD

Row | Molecule | Formation of collateral blood routes (angiography) [1] | CD31-positive cell count per field (200×) ([2]; mice orally administered with 5 mg/kg of LE135, muscle tissues of affected extremities, 21st day after the operation) | Numbers of endothelial cells (CD31-positive cells), in words ([2]; muscle tissues of affected extremities, 21st day after the operation, compared with no medicament-administered group) | Necrosis or amputation in the lower extremities ([2]; orally 5 mg/kg of LE135, 28th day after the operation, about 30% in no medicament-administered mice) | Blood flow ratio between affected and normal extremities (laser Doppler method) ([2]; orally 5 mg/kg of LE135, up to 28 days after the operation, compared with no medicament-administered mice (FIG. 1)) | Area (luminal structure area) [3, 4] | Number of branchings [3, 4] | Area (luminal structure area) [3, 5] | Number of branching [3, 5] | Area (luminal structure area) [3, 6] | Number of branching [3, 6] | Area (luminal structure area) [3, 7] | Number of branching [3, 7] | Promotion of neovascularization ([3]; concentrations of 10^−10 and 10^−9 M, versus negative control) | Blood vessel luminal structure area (in words) ([3]; Example 4: 10^−9 mol/L, versus negative control) | Number of branching [3] | Number of branchings [3] | Area (luminal structure area) ([3]; Example 4: VEGF final concentration 10 μg/ml, culture 11 days, relative value, negative control taken as 100 (Table 3)) | Area (luminal structure area) ([3]; VEGF final concentration 10 ng/ml, culture 11 days, relative value, negative control taken as 100 (Table 1))
1 | CN1c2cc3c(cc2N=C(c2ccc(C(=O)O)cc2)c2ccccc21)C(C)(C)CCC3(C)C [LE135, 4-(5H-7,8,9,10-tetrahydro-5,7,7,10,10-pentamethylbenzo[e]naphtho[2,3-b][1,4]diazepin-13-yl)benzoic acid] | evidently better formation of collateral blood routes | 21.63 ± 4.12 per field (200×) | significantly higher numbers of endothelial cells | no mouse among the LE135-administered mice was observed to have necrosis or amputation | Significant improvement of the blood flow | 158.73 ± 6.89 | 170.09 ± 14.87 | 112.52 ± 4.68 | 150.31 ± 10.26 | 116.30 ± 5.69 | 137.40 ± 9.48 | 109.09 ± 4.89 | 118.70 ± 9.27 | significantly promoted neovascularization | – | – | – | – | –
2 | CN1c2cc3c(cc2N=C(c2ccc(C(=O)O)cc2)c2ccc4ccccc4c21)C(C)(C)CCC3(C)C [LE540] | – | – | – | – | – | 172.02 ± 22.00 | 195.33 ± 24.49 | – | – | – | – | – | – | – | significantly increased the blood vessel luminal structure area | – | – | – | –
3 | VEGF | – | – | – | – | – | – | – | – | – | – | – | – | – | – | – | 154.20 ± 7.12 | 321.50 ± 42.17 | 202.52 ± 18.40 | 134.88 ± 4.42
